From patent US12351574B2, “Selective ligands for modulation of GIRK channels” (Northeastern University, priority 2018, dated 2025)

Key:
GIRK1/4 = molecular target: T1, GIRK1/4 (Homo sapiens, UniProt P48544+P48549); test: diC8-PIP2 concentration-response (NPo), inside-out macropatches from Xenopus oocytes, GIRK1/4; assay type: cell-based; parameters: expressed in transfected cells; host or cells: Xenopus laevis oocytes (cRNA injection); details: in the presence of 10 μM compound; for apparent affinity of GIRK1/4 channels for diC8-PIP2: control 48.4±8 μM
T1 sequence (P48549 1-501): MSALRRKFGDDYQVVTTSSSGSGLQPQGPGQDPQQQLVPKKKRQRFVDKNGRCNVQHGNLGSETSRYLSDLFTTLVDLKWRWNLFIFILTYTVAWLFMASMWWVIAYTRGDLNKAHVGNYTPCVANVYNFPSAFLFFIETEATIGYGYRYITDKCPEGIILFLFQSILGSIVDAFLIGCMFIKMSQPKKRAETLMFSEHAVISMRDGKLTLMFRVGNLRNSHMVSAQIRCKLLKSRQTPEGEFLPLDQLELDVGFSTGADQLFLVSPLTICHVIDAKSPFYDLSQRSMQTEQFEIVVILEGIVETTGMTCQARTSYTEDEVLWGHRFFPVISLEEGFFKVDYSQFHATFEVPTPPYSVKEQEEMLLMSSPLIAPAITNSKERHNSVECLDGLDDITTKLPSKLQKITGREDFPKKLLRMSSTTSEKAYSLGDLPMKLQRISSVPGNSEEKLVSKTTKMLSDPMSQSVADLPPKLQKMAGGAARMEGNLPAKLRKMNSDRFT
T1 sequence (P48544 1-419): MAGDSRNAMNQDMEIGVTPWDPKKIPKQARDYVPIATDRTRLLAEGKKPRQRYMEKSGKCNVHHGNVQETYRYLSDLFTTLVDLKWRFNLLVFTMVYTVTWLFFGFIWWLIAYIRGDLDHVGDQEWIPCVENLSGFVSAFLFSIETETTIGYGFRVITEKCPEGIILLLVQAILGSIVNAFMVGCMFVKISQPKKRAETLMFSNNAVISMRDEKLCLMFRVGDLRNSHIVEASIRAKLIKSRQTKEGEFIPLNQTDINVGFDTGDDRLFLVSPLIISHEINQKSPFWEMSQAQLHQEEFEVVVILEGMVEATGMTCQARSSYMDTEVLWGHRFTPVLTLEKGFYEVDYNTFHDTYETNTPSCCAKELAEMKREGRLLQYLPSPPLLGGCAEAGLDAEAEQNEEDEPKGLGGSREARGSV
Description: The inventors next turned to inside-out macropatches from Xenopus oocytes to compare changes in the PIP2 sensitivity by examining diC8 concentration-responses in the absence and presence of saturating concentrations of each of the activating compounds. […] In FIG. 14B, the control plot overlays the GAT1508 and GAT1521 plots; only ML297 was able to left-shift the sensitivity of GIRK1/4 heteromers to PIP2, while both GAT1508 and GAT1521 were ineffective in changing the sensitivity of these heteromers to PIP2.
Xenopus laevis oocyte expression: Plasmid DNAs of GIRK channel subunits were linearized prior to in vitro transcription. Capped RNAs were transcribed using mMESSAGE mMACHINE T7 Transcription Kit (Thermo Fisher Scientific). Xenopus oocytes were surgically extracted, dissociated and defolliculated by collagenase treatment, and microinjected with 50 nl of a water solution containing 1 ng of each GIRK subunit RNA. For TEVC experiments, oocytes were kept 2 days at 17° C. before recording, while for NPo experiments oocytes were incubated for up to 4 days at 17° C.
Oocyte macropatch studies: Macropatch GIRK channel activity was recorded from devitellinized oocytes under the inside-out mode of standard patch clamp methods using an AM2400 patch clamp amplifier (A-M systems). […] Oocytes were bathed with a solution comprising (in mM): 96 KCl, 5 EGTA, 1 MgATP and 10 HEPES (pH 7.4). Current amplitudes were measured at −80 mV with a sampling rate of 10 kHz. Data were analyzed using WinEDR and Clampfit software (Molecular Devices).

[1] = system: right atrium of isolated Langendorff-perfused mouse heart; test: optical mapping of atrial action potential duration in isolated Langendorff-perfused mouse heart; details: for atrial optical action potential duration 70% repolarization (APD70), quantification: 2.4 μM, 10 Hz stimulation, FIGS. 23A-23B, controls 23.93 (ML297) and 23.1 (GAT1508); for average APD70 of the map of the stimulated right atrium: 10 minutes after 2.4 μM, 10 Hz, FIG. 22, controls 23.9 (ML297) and 21.8 (GAT1508)
Protocol: Optical mapping studies in isolated hearts: Isolated hearts of C57BL/6 mice, four to six months of age, were retrogradely perfused with Tyrode's solution in the Langendorff mode. The preparations were maintained at 37° C., and stained with a bolus of a voltage sensitive dye (0.25 ml, 10 μM Di-4-ANEPPS, Molecular Probes) and imaged with a CCD camera (RedShirt Imaging), 80×80 pixels, 85 μm per pixel, and 1000 frames per second. […] A bipolar, silver tip stimulation electrode was used to pace the right atrium (2.5 5 ms pulses, 2× diastolic threshold) at 10 Hz using an AD Instrument stimulation platform. ML297 or GAT1508 at 2.4 μM were introduced into the perfusate. The action potential duration at 70% repolarization (APD70), was quantified as the inventors have done extensively.

[2] = cardiovascular radiotelemetry in freely moving rats; assay type: in vivo, rat; details: 30 mg/kg
Protocol: Cardiovascular experiments: Radiotelemetry probes [Cat. no. HD-S11, Data Sciences International, St. Paul, MN, United States] were surgically implanted into the peritoneal cavity and sutured to the muscle wall in order to assess general motor activity and temperature. A pressure transducer was implanted into the femoral artery to assess cardiovascular responses [i.e., mean arterial blood pressure (MAP) and heart rate (HR)]. Animals were injected with selected compounds following a 10 min baseline period and data points were analayzed between 20 min and 60 min after injection. This allowed us to investigate ligand effects without confounding effects of animal handling or the injection itself and to allow the ligand to cross the blood-brain barrier.

| Structure (SMILES) | apparent affinity of GIRK1/4 channels for diC8-PIP2 (GIRK1/4) [µM] | atrial optical action potential duration 70% repolarization (APD70), quantification [1] [ms] | average APD70 of the map of the stimulated right atrium [1] [ms] | change in heart rate (HR) (in words) [2] | change in locomotor activity (LA) (in words) [2] | change in mean arterial pressure (MAP) (in words) [2] | EMAX of diC8-PIP2 response (NPo), GIRK1/4 (GIRK1/4; control 4.4±0.2) | change in body temperature (BT) (in words) [2] |
| --- | --- | --- | --- | --- | --- | --- | --- | --- |
| Cc1cc(NC(=O)Nc2ccc(Br)s2)n(-c2ccccc2)n1 [GAT1508, 1-(5-bromothiophen-2-yl)-3-(3-methyl-1-phenyl-1H-pyrazol-5-yl)urea] | 46 ± 7.4 | 23.57 | 20.3 | no significant changes | no significant changes | no significant changes |  |  |
| Cc1cc(NC(=O)Nc2ccc(C)s2)n(-c2ccccc2)n1 [GAT1521, 1-(3-methyl-1-phenyl-1H-pyrazol-5-yl)-3-(5-methylthiophen-2-yl)urea] | 51 ± 6.5 |  |  |  |  |  |  |  |
| Cc1cc(NC(=O)Nc2ccc(F)c(F)c2)n(-c2ccccc2)n1 [ML297, reference compound] | 17.4 ± 2 | 16.53 | 16 | paradoxical long-lasting increases | without affecting significantly | paradoxical long-lasting increases | 5.4±0.2 | without affecting significantly |
